Reference: ChEMBL document CHEMBL1201862, “PubChem BioAssay data set” (2004)
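Assay format: 96-well plates, 48-hour exposure. GI50 is the concentration that inhibits growth by half.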 Active and inactive are the calls of the source. No stated cut-off is given here; in the data, active = GI50 up to about 1.1 µM and inactive = higher.

How the values were obtained:
Experiment in all cases: NCI tumour cell line growth inhibition, 48 h
[1] = system: U-251
[2] = system: HCT-15
[3] = system: IGROV-1
[4] = system: ACHN
[5] = system: NCI-H23
[6] = system: SF-539
[7] = system: M14
[8] = system: OVCAR-8
[9] = system: KM12
[10] = system: MOLT-4
[11] = system: SF-295
[12] = system: SR
[13] = system: SK-MEL-28
[14] = system: A549
[15] = system: NCI-H226
[16] = system: SK-MEL-2

| Structure (SMILES) | GI50 [1] | GI50 [2] | GI50 [3] | GI50 [4] | GI50 [5] | GI50 [6] | GI50 [7] | GI50 [8] | GI50 [9] | GI50 [10] | GI50 [11] | GI50 [12] | GI50 [13] | GI50 [14] | GI50 [15] | GI50 [16] |
| --- | --- | --- | --- | --- | --- | --- | --- | --- | --- | --- | --- | --- | --- | --- | --- | --- |
| O=C(CO[N+](=O)[O-])OCC(=O)c1ccccc1 | > 100 µM (inactive) | > 100 µM | > 100 µM (inactive) | > 100 µM (inactive) | > 100 µM (inactive) | > 100 µM (inactive) | > 100 µM (inactive) | > 100 µM (inactive) | > 100 µM (inactive) | > 100 µM (inactive) | > 100 µM (inactive) | > 100 µM (inactive) | > 100 µM (inactive) | > 100 µM (inactive) | > 100 µM (inactive) | > 100 µM (inactive) |
| CN(C)CCCSc1c2ccccc2nc2cc(NCC(=O)Nc3ccccc3-c3ccccc3NC(=O)CNc3ccc4c(SCCCN(C)C)c5ccccc5nc4c3)ccc12 | > 100 µM (inactive) | > 100 µM | > 100 µM (inactive) | > 100 µM (inactive) | > 100 µM (inactive) | > 100 µM (inactive) | > 100 µM (inactive) | > 100 µM (inactive) | 84.3 µM (inactive) | 26.5 µM (inactive) | > 100 µM (inactive) | > 100 µM (inactive) | > 100 µM (inactive) | > 100 µM (inactive) | > 100 µM (inactive) | > 100 µM (inactive) |
| Clc1ccc(-n2nnc(C3=NCCCN3)c2-c2ccccc2)cc1 | > 100 µM (inactive) | > 100 µM | > 100 µM (inactive) | > 100 µM (inactive) | > 100 µM (inactive) | > 100 µM (inactive) | > 100 µM (inactive) | > 100 µM (inactive) | > 100 µM (inactive) | > 100 µM (inactive) | > 100 µM (inactive) | > 100 µM (inactive) | > 100 µM (inactive) | > 100 µM (inactive) | > 100 µM (inactive) | > 100 µM (inactive) |
| CCNC(=O)C#CC(=O)NCC | > 91.4 µM (inactive) | > 42.6 µM | > 100 µM (inactive) | > 100 µM (inactive) | > 100 µM (inactive) | > 100 µM (inactive) | > 100 µM (inactive) | > 100 µM (inactive) | > 100 µM (inactive) | > 100 µM (inactive) | > 100 µM (inactive) | > 41.9 µM (inactive) | > 10 µM (inactive) | > 60.5 µM (inactive) | > 10 µM (inactive) | > 100 µM (inactive) |
| Cc1ccc(C)c(NC(=O)c2cc(-c3ccc([N+](=O)[O-])cc3)nc(N)n2)c1 | > 100 µM (inactive) | > 100 µM | > 100 µM (inactive) | > 100 µM (inactive) | > 100 µM (inactive) | > 100 µM (inactive) | > 100 µM (inactive) | > 100 µM (inactive) | > 100 µM (inactive) | > 100 µM (inactive) | > 100 µM (inactive) | > 100 µM (inactive) | > 100 µM (inactive) | > 100 µM (inactive) | > 100 µM (inactive) | > 100 µM (inactive) |
| COc1ccc2c(CCNS(=O)(=O)c3ccccc3)c(C(C)=O)[nH]c2c1[N+](=O)[O-] | > 100 µM (inactive) | > 100 µM | > 100 µM (inactive) | > 100 µM (inactive) | > 100 µM (inactive) | 31.8 µM (inactive) | > 100 µM (inactive) | 65.2 µM (inactive) | > 100 µM (inactive) | > 100 µM (inactive) | 63.7 µM (inactive) | > 100 µM (inactive) | > 10 µM (inactive) | > 100 µM (inactive) | 43.3 µM (inactive) | > 100 µM (inactive) |
| CN1CCN(CCNc2ccc(CO)c3sc4ccccc4c(=O)c23)CC1 | 3.11 µM (inactive) | 6.32 µM | 11.1 µM (inactive) | 13.8 µM (inactive) | 12.9 µM (inactive) | 13.2 µM (inactive) | 14.1 µM (inactive) | 9.38 µM (inactive) | 10.9 µM (inactive) | 3.15 µM (inactive) | 5.93 µM (inactive) | 2.51 µM (inactive) | 15.5 µM (inactive) | 10.5 µM (inactive) | 13.2 µM (inactive) | 15 µM (inactive) |
